Source: ChEMBL document CHEMBL1124307, “Synthesis and beta-adrenergic antagonism of 2-(aryloxy)-1-(2-piperidyl)ethanols” (J Med Chem, 1988)
Activity calls are given as the source filed them. The rule behind the calls is not given here.

Species: Cavia porcellus
Assay: Selectivity of inhibition at beta-1 versus beta-2 adrenergic receptors, […]
Details: not given

SMILES	Ratio
CC(C)N(C)CC(O)COc1ccccc1 (stereo not drawn)	2.2
CC(C)NCC(O)COCCCc1ccccc1 (stereo not drawn)	0.5
CC(C)NCC(O)COCc1ccccc1 (stereo not drawn)	1
CC(C)NCC(O)COc1ccc2ccccc2c1 (stereo not drawn)	0.9
CC(C)NCC(O)COc1ccccc1 (stereo not drawn)	8.1
CN1CCCC[C@@H]1[C@H](O)COc1ccccc1	0.7
Cc1ccc(OCC(O)CNC(C)C)cc1 (stereo not drawn)	1.8
Cc1cccc(OCC(O)CNC(C)C)c1 (stereo not drawn)	6.5
CN1CCCC[C@H]1[C@H](O)COc1ccccc1 (relative stereo)	1.4
Cc1ccc(OC[C@@H](O)[C@@H]2CCCCN2)cc1 (relative stereo)	0.8
Cc1ccc(OC[C@@H](O)[C@H]2CCCCN2)cc1 (relative stereo)	1.2
Cc1cccc(OC[C@@H](O)[C@@H]2CCCCN2)c1 (relative stereo)	0.03
Cc1cccc(OC[C@@H](O)[C@H]2CCCCN2)c1 (relative stereo)	0.5
O[C@H](COCCCc1ccccc1)[C@@H]1CCCCN1 (relative stereo)	0.1
O[C@H](COCc1ccccc1)[C@@H]1CCCCN1 (relative stereo)	2.5
O[C@H](COCc1ccccc1)[C@H]1CCCCN1 (relative stereo)	0.4
O[C@H](COc1ccc2ccccc2c1)[C@@H]1CCCCN1 (relative stereo)	1.8
O[C@H](COc1ccc2ccccc2c1)[C@H]1CCCCN1 (relative stereo)	2
O[C@H](COc1cccc2ccccc12)[C@@H]1CCCCN1 (relative stereo)	0.4
O[C@H](COc1cccc2ccccc12)[C@H]1CCCCN1 (relative stereo)	0.7
O[C@H](COc1ccccc1)[C@@H]1CCCCN1 (relative stereo)	1.7
O[C@H](COc1ccccc1)[C@H]1CCCCN1 (relative stereo)	0.7

Species: Cavia porcellus
Assay: Antagonism ([…] blocking activity) of isoprenaline-induced positive inotropic effect in guinea pig left atrium; Inactive
Type: functional
Details: Cardiac atrium

SMILES	pA2
O[C@H](COCCCc1ccccc1)[C@H]1CCCCN1 (relative stereo)	inactive
